What was measured:
[1] = test system: Enterococcus faecalis 769; experiment: agar diffusion test (Test System II, multi-resistant germs); format: cell-based; design: key: r = resistant (no detectable zone of inhibition)
Method: (§1) The test substances are deposited in stepped quantities (10 μg, 50 μg, 100 μg) onto active ingredient carriers (sensi-discs). For this purpose, the test substances are dissolved in methanol or A. dest. according to their solubility. Each inoculated plate is fitted with 3 test sheets.
(§2) Test System II (Effect Against Multi-Resistant Germs)
(§3) For this purpose, bacteria is cultivated on Müller-Hinton-Agar II plates.
(§4) With 1-1.5 ml physiological saline solution, a bacteria suspension of McFarland 0.5 (corresponds to a bacteria density of 150×10^6 germs) is produced. Then, with a sterile glass rod, a small drop of bacteria suspension is placed on the Müller-Hinton-Agar plate and coated in three layers (vertical, horizontal, and transverse). Thereafter, the sensi-discs with the novel semi-synthetic test substances are placed on top. The fitted plates are incubated for 18-20 hours at 37° C. After incubation, the diameters of the zones of inhibition are read as a measure for the antimicrobial activity of the novel semi-synthetic test substances.

[2] = test system: Staphylococcus aureus 315; experiment: as above; format: cell-based; design: key: r = resistant (no detectable zone of inhibition)
Method: as §1, §2, §3, §4

[3] = test system: S. aureus 36881; experiment: as above; format: cell-based, Staphylococcus aureus; design: key: r = resistant (no detectable zone of inhibition)
Method: as §1, §2, §3, §4

[4] = test system: S. aureus 520; experiment: as above; format: cell-based, Staphylococcus aureus; design: key: r = resistant (no detectable zone of inhibition)
Method: as §1, §2, §3, §4

[5] = test system: S. aureus North Germany strain; experiment: as above; format: cell-based, Staphylococcus aureus; design: key: r = resistant (no detectable zone of inhibition)
Method: as §1, §2, §3, §4

[6] = test system: S. aureus 38418; experiment: as above; format: cell-based, Staphylococcus aureus
Method: as §1, §2, §3, §4

[7] = test system: S. aureus ATCC 6538; experiment: as above; format: cell-based, Staphylococcus aureus
Method: as §1, §2, §3, §4

[8] = test system: S. epidermidis 847; experiment: as above; format: cell-based, Staphylococcus epidermidis; design: key: r = resistant (no detectable zone of inhibition)
Method: as §1, §2, §3, §4

[9] = test system: S. epidermidis 125; experiment: as above; format: cell-based, Staphylococcus epidermidis
Method: as §1, §2, §3, §4

[10] = test system: Staphylococcus aureus ATCC 6538; experiment: mouse infected with Staphylococcus aureus infection model (survival); format: in vivo, BALB/c mice; conditions: 2 × 1.0 mg (50 mg/kg) i.p.
Method: Method for Effectiveness In Vivo with the Mouse Infected with Staphylococcus aureus Model
On Day 0, at least 3 BALB/c mice per test substance (Table 8) or controls are pretreated with cyclophosphamide (250 mg/kg) in 250 μl PBS inta peritoneal (i.p.).
On Day 2, the animals again received 100 mg/kg i.p.
On Day 2, a colony of the test germ is transferred from a growing agar plate (Müller-Hinton-Agar, Beckton Dickinson) into a flask with 10 ml CASO broth (CASO-B., Soyabean peptone-Casein peptone broth, SIFIN, 30 g/l) and is cultivated overnight at 37° C. and a shaking frequency of 250 rpm.
On Day 3, the pre-culture (Vk) is diluted 1:50 with CASO-B and further cultivated ca. 2 hours until an extinction in the medium of 0.6 at a wavelength of 550 nm is reached. Then, it is grown 1× with PBS at room temperature and set again to an extinction of 0.6.
At least 3 animals for a test substance or controls are infected with 10 μl/g body weight grown germs of a bacteria suspension with the extinction 0.6 (ca. 10^10-10^12 CFU, Colony forming units) i.p.
After 30 minutes, antibiotic solution is injected into the mice in a volume of 200 μl PBS with 3% DMSO i.p. 6 hours later, the second antibiotic injection is performed at the same concentration. […]

3-chlorine-7-[2-(2-carbamoyl-3,6-dioxocyclohexa-1,4-dienylamino)-2-phenyl-acetylamino]-8-oxo-5-aza-bicyclo[4.2.0]oct-3-ene-4-carboxylic acid [1n]
Diameter of zone of inhibition ([1]; Quantity n 0.019): r
Diameter of zone of inhibition ([1]; Quantity n 0.096): r
Diameter of zone of inhibition ([1]; Quantity n 0.19): r
Diameter of zone of inhibition ([2]; Quantity n 0.019): r
Diameter of zone of inhibition ([2]; Quantity n 0.096): r
Diameter of zone of inhibition ([2]; Quantity n 0.19): 12 mm
Diameter of zone of inhibition ([3]; Quantity n 0.019): r
Diameter of zone of inhibition ([3]; Quantity n 0.096): r
Diameter of zone of inhibition ([3]; Quantity n 0.19): 8 mm
Diameter of zone of inhibition ([4]; Quantity n [mol] 0.019): r
Diameter of zone of inhibition ([4]; Quantity n [mol] 0.096): r
Diameter of zone of inhibition ([4]; Quantity n [mol] 0.19): 8 mm
Diameter of zone of inhibition ([5]; Quantity n 0.019): r
Diameter of zone of inhibition ([5]; Quantity n 0.096): r
Diameter of zone of inhibition ([5]; Quantity n 0.19): 14 mm
Diameter of zone of inhibition ([6]; Quantity n [mol] 0.019): 14 mm
Diameter of zone of inhibition ([6]; Quantity n [mol] 0.096): 26 mm
Diameter of zone of inhibition ([6]; Quantity n [mol] 0.19): 30 mm
Diameter of zone of inhibition ([7]; Quantity n 0.019): 22 mm
Diameter of zone of inhibition ([7]; Quantity n 0.096): 28 mm
Diameter of zone of inhibition ([7]; Quantity n 0.19): 32 mm
Diameter of zone of inhibition ([8]; Quantity n [mol] 0.019): r
Diameter of zone of inhibition ([8]; Quantity n [mol] 0.096): 16 mm
Diameter of zone of inhibition ([8]; Quantity n [mol] 0.19): 20 mm
Diameter of zone of inhibition ([9]; Quantity n 0.019): 14 mm
Diameter of zone of inhibition ([9]; Quantity n 0.096): 22 mm
Diameter of zone of inhibition ([9]; Quantity n 0.19): 26 mm
Survival/tested mice n/n [10]: 3/3
